Literature values, collected in patent publication US20060051406A1, “Formulation of insoluble small molecule therapeutics in lipid-based carriers” (priority 2004, published 2006).

Conditions: lipid transition temperature (gel to liquid crystalline phase)

Tm [°C] | SMILES
23 | CCCCCCCCCCCCCC(=O)OC[C@H](COP(=O)([O-])OCC[N+](C)(C)C)OC(=O)CCCCCCCCCCCCC [Dimyristoylphosphatidylcholine]
−22 | CCCCCCCC/C=C\CCCCCCCC(=O)OC[C@H](COP(=O)([O-])OCC[N+](C)(C)C)OC(=O)CCCCCCC/C=C\CCCCCCCC [Dioleoylphosphatidylcholine, 1,2-dioleoyl-sn-glycero-3-phosphocholine]
41 | CCCCCCCCCCCCCCCC(=O)OC[C@H](COP(=O)([O-])OCC[N+](C)(C)C)OC(=O)CCCCCCCCCCCCCCC [Dipalmitoylphosphatidylcholine]
55 | CCCCCCCCCCCCCCCCCC(=O)OC[C@H](COP(=O)([O-])OCC[N+](C)(C)C)OC(=O)CCCCCCCCCCCCCCCCC [Distearoylphosphatidylcholine]
